Laboratory results published in patent publication US20100136541A1, “IDENTIFICATION AND VERIFICATION OF METHYLATION MARKER SEQUENCES” (Siemens Healthcare Diagnostics Inc., priority 2003, published 2010).

Tested on: CA4 CpG sites
Test: Bisulfite sequencing of CpG sites, cell lines treated vs. untreated
Type: cell-based, human
Set-up: unit not given here
Method: Samples: Paired tumor and adjacent normal tissues from twelve colorectal cancer patients were collected under institutional review board (IRB) approval with patient consent. Tissues were flash frozen in LN2 and stored at −80° C. prior to DNA extraction. All tissues were blinded. Cell lines: A panel of five colorectal cancer cell lines was used. Cells were grown to ˜50% confluence in the appropriate culture medium prior to treatment with 5-aza-2′-deoxycytidine. Optimal concentrations and incubation times (Table 4) were determined by assaying for reduction of p16 promoter methylation using MSP. Cells were harvested, pelleted by centrifugation, and washed twice in Hanks buffered saline solution. Cell pellets were stored at −80° C. Control cells were maintained simultaneously without 5-aza-2′-deoxycytidine treatment. DNA extraction: DNA was purified from tissues and cell lines using the QIAGEN DNeasy® Tissue Kit. Approximately 25-35 mg of each tissue was pulverized under liquid nitrogen before extraction. Elution volume for tissues was 2004. A final volume of […] of cell line DNA was extracted from 15 to 254 of each packed cell pellet (between 10^6-10^7 cells). Purified DNA was stored at −20° C. Bisulfite modification: Modification was performed according to the Frommer method (See Frommer M, et al., PNAS, 89: 1827-1831 (1992).) One μg genomic DNA was diluted into 50 μl with distilled H2O, 5.5 μl of 2M NaOH was added, and the mixture incubated at 37° C. for 10 minutes (to create single stranded DNA). Thirty μl of freshly prepared 10 mM hydroquinone (Sigma) was added to each tube. Five hundred twenty μl of freshly prepared 3M sodium bisulfite (Sigma S-8890), pH 5.0 was then added. Reagents were thoroughly mixed and then covered with mineral oil and incubated at 50° C. for 16 hours. After removing the oil, 1 ml of Wizard DNA Cleanup Resin (Promega A7280) was added to each tube prior to applying the mixture to miniprep column in the DNA Wizard Cleanup kit. The column was washed with 2 ml of 80% isopropanol, and eluted with 50 μl of heated water (60-70° C.). 5.5 μl of 3 M NaOH to was added to each tube, and incubated at room temperature for 5 minutes. Then 1 μl glycogen was added as carrier, 33 μl of 10 M NH4Ac, and 3 volumes of ethanol for DNA precipitation. The pellet was spun down and washed with 70% ethanol, dried and resuspended in 20 μl water. In some instances, the EZ DNA Methylation Kit (Zymo Research) which uses a simplified version of the Frommer method was used. In these cases, 1 μg of genomic DNA was denatured in 0.3M NaOH for 15 minutes at 37° C. followed by incubation at 50° C. for 16 hours in 0.5 mM hydroquinone and a saturated solution of sodium bisulfite at pH 5. Modified DNA was bound to the Zymo column membrane, then desulfonated with 0.3M NaOH for 15 minutes at room temperature. DNA was washed and resuspended with 50 μL 10 mM Tris-HCl-0.1 mM EDTA, pH 7.5 and stored at −20° C. The bisulfite reaction results in conversion of an unmethylated cytosine to uracil. Methylated cytosine remains unchanged after the bisulfite reaction. The resulting bisulfite modified DNA is single stranded. PCR amplification for sequencing: Primers were designed to amplify both methylated and unmethylated fragments of DNA (Table 5). Five μL of modified DNA ( 1/10 of modification reaction) was amplified first in a 254, reaction volume containing 10 mM Tris-HCl pH8.3, 50 mM KCl, 1.5 mM to 2 mM MgCl2, (Applied Biosystems), 0.25 mM each dNTP, 0.5 unit AmpliTaq (Applied Biosystems), and sequencing primers (each at 200 nM). Cycling conditions were 10 minutes at 95° C., 40 cycles of 30 seconds at 95° C., 30 seconds at 54-62° C., 30 seconds at 72° C., subsequently followed by extension for 5 minutes at 72° C.
Reaction products were purified either by the shrimp-alkaline phosphatase-Exol standard method or on the Qiagen Qiaquick PCR clean-up column and eluted in 30 μL 10 mM Tris-HCl, pH8.5. […]

Nc1ncn([C@H]2C[C@H](O)[C@@H](CO)O2)c(=O)n1 [5-aza-2′-deoxycytidine]
CA4 sequencing result (methylation) at CpG site #6 (HT-29 treated): 47 | CA4 sequencing result (methylation) at CpG site #35 (HT-29 treated): 96 | CA4 sequencing result (methylation) at CpG site #43 (HT-29 treated): 77 | CA4 sequencing result (methylation) at CpG site #52 (HT-29 treated): 92 | CA4 sequencing result (methylation) at CpG site #104 (HT-29 treated): 50 | CA4 sequencing result (methylation) at CpG site #120 (HT-29 treated): 67 | CA4 sequencing result (methylation) at CpG site #127 (HT-29 treated): 74 | CA4 sequencing result (methylation) at CpG site #129 (HT-29 treated): 87 | CA4 sequencing result (methylation) at CpG site #140 (HT-29 treated): 84 | CA4 sequencing result (methylation) at CpG site #153 (HT-29 treated): 83 | CA4 sequencing result (methylation) at CpG site #156 (HT-29 treated): 72 | CA4 sequencing result (methylation) at CpG site #158 (HT-29 treated): 87 | CA4 sequencing result (methylation) at CpG site #164 (HT-29 treated): 87 | CA4 sequencing result (methylation) at CpG site #181 (HT-29 treated): 73 | CA4 sequencing result (methylation) at CpG site #190 (HT-29 treated): 68 | CA4 sequencing result (methylation) at CpG site #199 (HT-29 treated): 92 | CA4 sequencing result (methylation) at CpG site #201 (HT-29 treated): 100 | CA4 sequencing result (methylation) at CpG site #204 (HT-29 treated): 94 | CA4 sequencing result (methylation) at CpG site #213 (HT-29 treated): 91 | CA4 sequencing result (methylation) at CpG site #218 (HT-29 treated): 65 | CA4 sequencing result (methylation) at CpG site #220 (HT-29 treated): 79 | CA4 sequencing result (methylation) at CpG site #227 (HT-29 treated): 47 | CA4 sequencing result (methylation) at CpG site #6 (LS123 treated): 75 | CA4 sequencing result (methylation) at CpG site #35 (LS123 treated): 39 | CA4 sequencing result (methylation) at CpG site #43 (LS123 treated): 62 | CA4 sequencing result (methylation) at CpG site #52 (LS123 treated): 69 | CA4 sequencing result (methylation) at CpG site #104 (LS123 treated): 16 | CA4 sequencing result (methylation) at CpG site #120 (LS123 treated): 27 | CA4 sequencing result (methylation) at CpG site #127 (LS123 treated): 70 | CA4 sequencing result (methylation) at CpG site #129 (LS123 treated): 46 | CA4 sequencing result (methylation) at CpG site #140 (LS123 treated): 62 | CA4 sequencing result (methylation) at CpG site #153 (LS123 treated): 43 | CA4 sequencing result (methylation) at CpG site #156 (LS123 treated): 40 | CA4 sequencing result (methylation) at CpG site #158 (LS123 treated): 22 | CA4 sequencing result (methylation) at CpG site #164 (LS123 treated): 62 | CA4 sequencing result (methylation) at CpG site #181 (LS123 treated): 18 | CA4 sequencing result (methylation) at CpG site #190 (LS123 treated): 11 | CA4 sequencing result (methylation) at CpG site #199 (LS123 treated): 17 | CA4 sequencing result (methylation) at CpG site #201 (LS123 treated): 33 | CA4 sequencing result (methylation) at CpG site #204 (LS123 treated): 20 | CA4 sequencing result (methylation) at CpG site #213 (LS123 treated): 29 | CA4 sequencing result (methylation) at CpG site #218 (LS123 treated): 24 | CA4 sequencing result (methylation) at CpG site #220 (LS123 treated): 20 | CA4 sequencing result (methylation) at CpG site #227 (LS123 treated): 11 | CA4 sequencing result (methylation) at CpG site #6 (LS174T treated): 93 | CA4 sequencing result (methylation) at CpG site #35 (LS174T treated): 35 | CA4 sequencing result (methylation) at CpG site #43 (LS174T treated): 39 | CA4 sequencing result (methylation) at CpG site #52 (LS174T treated): 40 | CA4 sequencing result (methylation) at CpG site #104 (LS174T treated): 18 | CA4 sequencing result (methylation) at CpG site #120 (LS174T treated): 22 | CA4 sequencing result (methylation) at CpG site #127 (LS174T treated): 19 | CA4 sequencing result (methylation) at CpG site #129 (LS174T treated): 62 | CA4 sequencing result (methylation) at CpG site #140 (LS174T treated): 28 | CA4 sequencing result (methylation) at CpG site #153 (LS174T treated): 23 | CA4 sequencing result (methylation) at CpG site #156 (LS174T treated): 32 | CA4 sequencing result (methylation) at CpG site #158 (LS174T treated): 10 | CA4 sequencing result (methylation) at CpG site #164 (LS174T treated): 41 | CA4 sequencing result (methylation) at CpG site #181 (LS174T treated): 22 | CA4 sequencing result (methylation) at CpG site #190 (LS174T treated): 61 | CA4 sequencing result (methylation) at CpG site #199 (LS174T treated): 10 | CA4 sequencing result (methylation) at CpG site #201 (LS174T treated): 67 | CA4 sequencing result (methylation) at CpG site #204 (LS174T treated): 3 | CA4 sequencing result (methylation) at CpG site #213 (LS174T treated): 56 | CA4 sequencing result (methylation) at CpG site #218 (LS174T treated): 64 | CA4 sequencing result (methylation) at CpG site #220 (LS174T treated): 45 | CA4 sequencing result (methylation) at CpG site #227 (LS174T treated): 27 | CA4 sequencing result (methylation) at CpG site #6 (SW480 treated): 70 | CA4 sequencing result (methylation) at CpG site #35 (SW480 treated): 61 | CA4 sequencing result (methylation) at CpG site #43 (SW480 treated): 57 | CA4 sequencing result (methylation) at CpG site #52 (SW480 treated): 73 | CA4 sequencing result (methylation) at CpG site #104 (SW480 treated): 13 | CA4 sequencing result (methylation) at CpG site #120 (SW480 treated): 52 | CA4 sequencing result (methylation) at CpG site #127 (SW480 treated): 44 | CA4 sequencing result (methylation) at CpG site #129 (SW480 treated): 18 | CA4 sequencing result (methylation) at CpG site #140 (SW480 treated): 14 | CA4 sequencing result (methylation) at CpG site #153 (SW480 treated): 17 | CA4 sequencing result (methylation) at CpG site #156 (SW480 treated): 53 | CA4 sequencing result (methylation) at CpG site #158 (SW480 treated): 7 | CA4 sequencing result (methylation) at CpG site #164 (SW480 treated): 66 | CA4 sequencing result (methylation) at CpG site #181 (SW480 treated): 27 | CA4 sequencing result (methylation) at CpG site #190 (SW480 treated): 57 | CA4 sequencing result (methylation) at CpG site #199 (SW480 treated): 28 | CA4 sequencing result (methylation) at CpG site #201 (SW480 treated): 56 | CA4 sequencing result (methylation) at CpG site #204 (SW480 treated): 27 | CA4 sequencing result (methylation) at CpG site #213 (SW480 treated): 51 | CA4 sequencing result (methylation) at CpG site #218 (SW480 treated): 35 | CA4 sequencing result (methylation) at CpG site #220 (SW480 treated): 32 | CA4 sequencing result (methylation) at CpG site #227 (SW480 treated): 23 | CA4 sequencing result (methylation) at CpG site #6 (SW620 treated): 64 | CA4 sequencing result (methylation) at CpG site #35 (SW620 treated): 89 | CA4 sequencing result (methylation) at CpG site #43 (SW620 treated): 81 | CA4 sequencing result (methylation) at CpG site #52 (SW620 treated): 77 | CA4 sequencing result (methylation) at CpG site #104 (SW620 treated): 33 | CA4 sequencing result (methylation) at CpG site #120 (SW620 treated): 74 | CA4 sequencing result (methylation) at CpG site #127 (SW620 treated): 67 | CA4 sequencing result (methylation) at CpG site #129 (SW620 treated): 80 | CA4 sequencing result (methylation) at CpG site #140 (SW620 treated): 78 | CA4 sequencing result (methylation) at CpG site #153 (SW620 treated): 60 | CA4 sequencing result (methylation) at CpG site #156 (SW620 treated): 69 | CA4 sequencing result (methylation) at CpG site #158 (SW620 treated): 73 | CA4 sequencing result (methylation) at CpG site #164 (SW620 treated): 92 | CA4 sequencing result (methylation) at CpG site #181 (SW620 treated): 43 | CA4 sequencing result (methylation) at CpG site #190 (SW620 treated): 46 | CA4 sequencing result (methylation) at CpG site #199 (SW620 treated): 10 | CA4 sequencing result (methylation) at CpG site #201 (SW620 treated): 96 | CA4 sequencing result (methylation) at CpG site #204 (SW620 treated): 100 | CA4 sequencing result (methylation) at CpG site #213 (SW620 treated): 96 | CA4 sequencing result (methylation) at CpG site #218 (SW620 treated): 91 | CA4 sequencing result (methylation) at CpG site #220 (SW620 treated): 93 | CA4 sequencing result (methylation) at CpG site #227 (SW620 treated): 37
